Reference: ChEMBL document CHEMBL5113420, “Selective inhibition of histone deacetylase 3 by novel hydrazide based small molecules as therapeutic intervention for the treatment of cancer” (Eur J Med Chem, 2022)
Several values for one entry are separate records, joined by “and”; a condition that tells them apart may be missing. Equal values may be shown once. Activity calls are given as the source filed them. The calls are words filed in the database; no cut-off is given here.

How the values were obtained:
4T1 [1] = experiment: Induction of apoptosis in mouse 4T1 Luc cells implanted in Balb/c mouse assessed as increase in ROS generation at 25 mg/kg by fluorescent microscopy analysis; type: functional, organism-based
[2] = Cmax in Wistar rat at 25 mg/kg, iv measured upto 24 hrs by HPLC analysis; type: ADME, organism-based; parameters: dose 25 mg/kg, time < 24 hrs, route iv; settings: in vivo
[3] = Toxicity in Balb/c mouse implanted with mouse 4T1 Luc cells assessed as kidney tissue damage at 15 mg/kg by H and E staining; type: organism-based; settings: in vivo
[4] = AUC (0 to infinity) in Wistar rat at 15 mg/kg, iv measured upto 24 hrs by HPLC analysis; type: ADME, organism-based; parameters: time < 24 hrs, dose 15 mg/kg, route iv; settings: in vivo
4T1 [5] = experiment: Induction of apoptosis in mouse 4T1 Luc cells implanted in Balb/c mouse reduction in CD44 expression at 15 to 25 mg/kg incubated for 24 hrs by Western blot analysis; type: functional, organism-based; settings: dose 15-25 mg/kg
[6] = Toxicity in Balb/c mouse implanted with mouse 4T1 Luc cells assessed as liver tissue damage at 15 mg/kg by H and E staining; type: organism-based; settings: in vivo
[7] = Toxicity in Balb/c mouse implanted with mouse 4T1 Luc cells assessed as spleen tissue damage at 15 mg/kg by H and E staining; type: organism-based; settings: in vivo
[8] = AUC (0 to infinity) in Wistar rat at 25 mg/kg, iv measured upto 24 hrs by HPLC analysis; type: ADME, organism-based; parameters: time < 24 hrs, dose 25 mg/kg, route iv; settings: in vivo
4T1 [9] = experiment: Cytotoxicity against mouse 4T1 cells assessed as increase in chromosomal condensation at 1.92 uM measured after 48 hrs by acridine orange and DAPI staining based fluorescence microscope assay; type: functional, cell-based
[10] = Toxicity in Balb/c mouse implanted with mouse 4T1-luc cells assessed as weight loss at 15 mg/kg, ip; type: organism-based; settings: in vivo
4T1 [11] = experiment: Antitumor activity against mouse 4T1 Luc cells implanted in Balb/c mouse assessed as reduction in metastasis at 15 to 25 mg/kg measured after 21 days by Kaplan-Meier method; type: functional, organism-based; settings: dose 15-25 mg/kg, time 21.0 day
[12] = AUCt in Wistar rat at 15 mg/kg, iv measured upto 24 hrs by HPLC analysis; type: ADME, organism-based; parameters: time < 24 hrs, dose 15 mg/kg, route iv; settings: in vivo
[13] = AUCt in Wistar rat at 15 mg/kg, ip measured upto 24 hrs by HPLC analysis; type: ADME, organism-based; parameters: time < 24 hrs, dose 15 mg/kg, route ip; settings: in vivo
4T1 [14] = experiment: Induction of apoptosis in mouse 4T1 Luc cells implanted in Balb/c mouse assessed as increase in ROS generation at 15 mg/kg by fluorescent microscopy analysis; type: functional, organism-based
4T1 [15] = experiment: Induction of apoptosis in mouse 4T1 Luc cells implanted in Balb/c mouse reduction in EGFR expression at 15 to 25 mg/kg incubated for 24 hrs by Western blot analysis; type: functional, organism-based; settings: dose 15-25 mg/kg
4T1 [16] = experiment: Induction of apoptosis in mouse 4T1 Luc cells implanted in Balb/c mouse downregulation of Bcl2 expression at 15 to 25 mg/kg incubated for 24 hrs by Western blot analysis; type: functional, organism-based; settings: dose 15-25 mg/kg
[17] = AUCt in Wistar rat at 25 mg/kg, iv measured upto 24 hrs by HPLC analysis; type: ADME, organism-based; parameters: dose 25 mg/kg, time < 24 hrs, route iv; settings: in vivo
[18] = Toxicity in Balb/c mouse implanted with mouse 4T1-luc cells assessed as mortality at 15 to 25 mg/kg, ip; type: organism-based; settings: in vivo, dose 15-25 mg/kg
[19] = Tmax in Wistar rat at 15 mg/kg, ip measured upto 24 hrs by HPLC analysis; type: ADME, organism-based; settings: in vivo
[20] = Toxicity in Balb/c mouse implanted with mouse 4T1 Luc cells assessed as lung tissue damage at 15 mg/kg by H and E staining; type: organism-based; settings: in vivo
4T1 [21] = experiment: Induction of apoptosis in mouse 4T1 Luc cells implanted in Balb/c mouse assessed as increase in cytochrome c level at 15 to 25 mg/kg incubated for 24 hrs by Western blot analysis; type: functional, organism-based; settings: dose 15-25 mg/kg
[22] = Tmax in Wistar rat at 15 mg/kg, iv measured upto 24 hrs by HPLC analysis; type: ADME, organism-based; settings: in vivo
[23] = MRT in Wistar rat at 15 mg/kg, ip measured upto 24 hrs by HPLC analysis; type: ADME, organism-based; settings: in vivo
[24] = Half life in Wistar rat at 25 mg/kg, iv measured upto 24 hrs by HPLC analysis; type: ADME, organism-based; settings: in vivo
4T1 [25] = experiment: Induction of apoptosis in mouse 4T1 Luc cells implanted in Balb/c mouse assessed as upregulation of caspase 3 level at 15 to 25 mg/kg incubated for 24 hrs by Western blot analysis; type: functional, organism-based; settings: dose 15-25 mg/kg
[26] = AUC (0 to infinity) in Wistar rat at 15 mg/kg, ip measured upto 24 hrs by HPLC analysis; type: ADME, organism-based; parameters: time < 24 hrs, dose 15 mg/kg, route ip; settings: in vivo
[27] = Half life in Wistar rat at 15 mg/kg, iv measured upto 24 hrs by HPLC analysis; type: ADME, organism-based; settings: in vivo
[28] = Apparent volume of distribution during terminal phase in Wistar rat at 15 mg/kg, ip measured upto 24 hrs by HPLC analysis; type: ADME, organism-based; settings: in vivo
[29] = MRT in Wistar rat at 25 mg/kg, iv measured upto 24 hrs by HPLC analysis; type: ADME, organism-based; settings: in vivo
4T1 [30] = experiment: Antitumor activity against mouse 4T1 Luc cells implanted in Balb/c mouse assessed as decrease in Ki-67 in tumor tissue at 15 to 25 mg/kg by immunohistochemical analysis; type: functional, organism-based; settings: dose 15-25 mg/kg
4T1 [31] = experiment: Antitumor activity against mouse 4T1 Luc cells implanted in Balb/c mouse assessed as increase in fluorescence at 25 mg/kg using luciferin-D as substrate at 100 mg/kg, ip measured on day 10 and 21 by IVIS Lumina III analysis; type: functional, organism-based
4T1 [32] = experiment: Antitumor activity against mouse 4T1-luc cells Balb/c mouse assessed as reduction in tumor volume at 25 mg/kg, ip measured once 3 days for 21 days (reference value: 49.16 to 1032.50 mm^3); type: functional; settings: time 3 day
[33] = Half life in Wistar rat at 15 mg/kg, ip measured upto 24 hrs by HPLC analysis; type: ADME, organism-based; settings: in vivo
4T1 [34] = experiment: Cytotoxicity against mouse 4T1 cells assessed as increase in chromosomal condensation at 8.4 uM measured after 48 hrs by acridine orange and DAPI staining based fluorescence microscope assay; type: functional, cell-based
[35] = MRT in Wistar rat at 15 mg/kg, iv measured upto 24 hrs by HPLC analysis; type: ADME, organism-based; settings: in vivo
4T1 [36] = experiment: Induction of apoptosis in mouse 4T1 Luc cells implanted in Balb/c mouse assessed as upregulation of caspase 7 level at 15 to 25 mg/kg incubated for 24 hrs by Western blot analysis; type: functional, organism-based; settings: dose 15-25 mg/kg

CCCNNC(=O)c1ccc(Nc2ccccc2)cc1
Activity (4T1 [1]): Active | Cmax [2]: 32100 ng/mL and 120 µM | Activity [3]: Non-Toxic | AUC(0-inf) [4]: 160000 ng·h/mL and 593 µM·h | Activity (4T1 [5]): Active | Activity [6]: Non-Toxic | Activity [7]: Non-Toxic | AUC(0-inf) [8]: 200000 ng·h/mL and 744 µM·h | Activity (4T1 [9]): Active | Activity [10]: Non-Toxic | Activity (4T1 [11]): Active | AUC(0-t) at 24 h [12]: 159000 ng·h/mL and 592 µM·h | AUC(0-t) at 24 h [13]: 28900 ng·h/mL and 107 µM·h | Activity (4T1 [14]): Active | Activity (4T1 [15]): Active | Activity (4T1 [16]): Active | AUC(0-t) at 24 h [17]: 200000 ng·h/mL and 742 µM·h | Activity [18]: Non-Toxic | Tmax [19]: 2 h | Activity [20]: Non-Toxic | Activity (4T1 [21]): Active | Tmax [22]: 0.5 h | MRT [23]: 4.16 h | half-life [24]: 2.62 h | Activity (4T1 [25]): Active | AUC(0-inf) [26]: 29300 ng·h/mL and 109 µM·h | half-life [27]: 2.19 h | Vz/F [28]: 2.16 (mg/kg)/(ug/ml) and 1.44 (mg/kg)/(uM) | MRT [29]: 5.13 h | Activity (4T1 [30]): Active | Activity (4T1 [31]): Active | Activity (4T1 [32]): 51.83 mm3 | half-life [33]: 3.41 h | Activity (4T1 [34]): Active | MRT [35]: 5.69 h | Activity (4T1 [36]): Active
